The data set is described as follows: Solubility in oil (sesame oil, benzyl benzoate), visual observation. Conditions: oil or lipid, thermodynamic from solid.

The structures appear in SMILES notation.

Description: Each of the Example compounds was examined for the solubility in oil (sesame oil, benzyl benzoate).
For the specific gravity of an oil, the following values were applied. • sesame oil (specific gravity: 0.914-0.921) • benzyl benzoate (specific gravity: 1.123) • (Method)
Example compound is measured in a microtube and an oil (sesame oil, or, benzyl benzoate) in an amount to make the concentration 10 mg/0.1 ml is added. After stirring, the solubility is evaluated by visual observation. When the compound is not dissolved, the mixture is heated, and the solubility is evaluated after cooling.

By solubility is commonly meant the concentration that dissolves in the medium under given conditions. Low readings indicate little dissolved substance, high ones much dissolved substance. In turn, `O=C(NCC1CCCCC1)OCn1c(=O)ccc2ccc(OCCCCN3CCN(c4cccc5sccc45)CC3)cc21` [Example 63, N-cyclohexylmethylcarbamic acid 7-[4-(4-benzo[b]thiophen-4-ylpiperazin-1-yl)butoxy]-2-oxo-2H-quinolin-1-ylmethyl ester] had a solubility (benzyl benzoate) greater than 100 mg/mL.

In turn, `COC(=O)CNC(=O)OCn1c(=O)ccc2ccc(OCCCCN3CCN(c4cccc5sccc45)CC3)cc21` [Example 64, {7-[4-(4-benzo[b]thiophen-4-ylpiperazin-1-yl)butoxy]-2-oxo-2H-quinolin-1-ylmethoxycarbonylamino}acetic acid methyl ester] registered a solubility (benzyl benzoate) greater than 100 mg/mL.

Consider `CCCCCCCCCCCCCC(=O)OCn1c(=O)ccc2ccc(OCCCCN3CCN(c4cccc5sccc45)CC3)cc21` [Example 65, tetradecanoic acid 7-[4-(4-benzo[b]thiophen-4-ylpiperazin-1-yl)butoxy]-2-oxo-2H-quinolin-1-ylmethyl ester], for which the solubility (benzyl benzoate) was greater than 100 mg/mL.

As to `O=C(OCn1c(=O)ccc2ccc(OCCCCN3CCN(c4cccc5sccc45)CC3)cc21)N1CCOCC1` [Example 67, morpholine-4-carboxylic acid 7-[4-(4-benzo[b]thiophen-4-ylpiperazin-1-yl)butoxy]-2-oxo-2H-quinolin-1-ylmethyl ester], the solubility (benzyl benzoate) was greater than 100 mg/mL.

Compound `CCCCCCCCCC(=O)OCN1C(=O)CCc2ccc(OCCCCN3CCN(c4cccc5sccc45)CC3)cc21` [Example 68, decanoic acid 7-[4-(4-benzo[b]thiophen-4-ylpiperazin-1-yl)butoxy]-2-oxo-3,4-dihydro-2H-quinolin-1-ylmethyl ester] gave a solubility (benzyl benzoate) greater than 100 mg/mL.

In the case of `O=C(NOCc1ccccc1)OCn1c(=O)ccc2ccc(OCCCCN3CCN(c4cccc5sccc45)CC3)cc21` [Example 69, 7-[4-(4-benzo[b]thiophen-4-ylpiperazin-1-yl)butoxy]-2-oxo-2H-quinolin-1-ylmethyl benzyloxycarbamate], the solubility (benzyl benzoate) is greater than 100 mg/mL.

Take `CCCCCC(=O)OCN1C(=O)CCc2ccc(OCCCCN3CCN(c4cccc5sccc45)CC3)cc21` [Example 70, hexanoic acid 7-[4-(4-benzo[b]thiophen-4-ylpiperazin-1-yl)butoxy]-2-oxo-3,4-dihydro-2H-quinolin-1-ylmethyl ester]: the solubility (benzyl benzoate) was greater than 100 mg/mL.

Regarding `O=C(NC1CCCCC1)OCn1c(=O)ccc2ccc(OCCCCN3CCN(c4cccc5sccc45)CC3)cc21` [Example 71, N-cyclohexylcarbamic acid 7-[4-(4-benzo[b]thiophen-4-ylpiperazin-1-yl)butoxy]-2-oxo-2H-quinolin-1-ylmethyl ester], where the note is “benzyl benzoate”, the solubility is greater than 100 mg/mL.

In turn, `COC(=O)OCN1C(=O)CCc2ccc(OCCCCN3CCN(c4cccc5sccc45)CC3)cc21` [Example 72, carbonic acid 7-[4-(4-benzo[b]thiophen-4-ylpiperazin-1-yl)butoxy]-2-oxo-3,4-dihydro-2H-quinolin-1-ylmethyl ester methyl ester] had a solubility (benzyl benzoate) greater than 100 mg/mL.

On to `COC(=O)CN(C)C(=O)OCn1c(=O)ccc2ccc(OCCCCN3CCN(c4cccc5sccc45)CC3)cc21` [Example 73, ({7-[4-(4-benzo[b]thiophen-4-ylpiperazin-1-yl)butoxy]-2-oxo-2H-quinolin-1-ylmethoxycarbonyl}methylamino)acetic acid methyl ester], for which, under “benzyl benzoate”, the solubility was greater than 100 mg/mL.

For the setting “benzyl benzoate”, `C=CCCCCCCCCC(=O)OCn1c(=O)ccc2ccc(OCCCCN3CCN(c4cccc5sccc45)CC3)cc21` [Example 74, undec-10-enoic acid 7-[4-(4-benzo[b]thiophen-4-ylpiperazin-1-yl)butoxy]-2-oxo-2H-quinolin-1-ylmethyl ester] had a solubility greater than 100 mg/mL.

As to `CCCCCCCCCCCCCCCCCCNC(=O)OCN1C(=O)CCc2ccc(OCCCCN3CCN(c4cccc5sccc45)CC3)cc21` [Example 75, N-octadecylcarbamic acid 7-[4-(4-benzo[b]thiophen-4-ylpiperazin-1-yl)butoxy]-2-oxo-3,4-dihydro-2H-quinolin-1-ylmethyl ester], the solubility was greater than 100 mg/mL (benzyl benzoate) and greater than 100 mg/mL (sesame oil).

As to `CCCCCCCCCCCCCCCNC(=O)OCN1C(=O)CCc2ccc(OCCCCN3CCN(c4cccc5sccc45)CC3)cc21` [Example 76, N-pentadecylcarbamic acid 7-[4-(4-benzo[b]thiophen-4-ylpiperazin-1-yl)butoxy]-2-oxo-3,4-dihydro-2H-quinolin-1-ylmethyl ester], the solubility was greater than 100 mg/mL (benzyl benzoate) and greater than 100 mg/mL (sesame oil).

Consider `CCC(C)C(=O)OCN1C(=O)CCc2ccc(OCCCCN3CCN(c4cccc5sccc45)CC3)cc21` (centres unmarked) [Example 77, 2-methylbutyric acid 7-[4-(4-benzo[b]thiophen-4-ylpiperazin-1-yl)butoxy]-2-oxo-3,4-dihydro-2H-quinolin-1-ylmethyl ester], for which the solubility (benzyl benzoate) is greater than 100 mg/mL.

Consider `CCCCC(C)C(=O)OCN1C(=O)CCc2ccc(OCCCCN3CCN(c4cccc5sccc45)CC3)cc21` (centres unmarked) [Example 78, 2-methylhexanoic acid 7-[4-(4-benzo[b]thiophen-4-ylpiperazin-1-yl)butoxy]-2-oxo-3,4-dihydro-2H-quinolin-1-ylmethyl ester], for which, for the setting “benzyl benzoate”, the solubility is greater than 100 mg/mL.

`CCCCCCCCCCCCCCCCCCN(C)C(=O)OCN1C(=O)CCc2ccc(OCCCCN3CCN(c4cccc5sccc45)CC3)cc21` [Example 79, N-methyl-N-octadecylcarbamic acid 7-[4-(4-benzo[b]thiophen-4-ylpiperazin-1-yl)butoxy]-2-oxo-3,4-dihydro-2H-quinolin-1-ylmethyl ester] registered a solubility (benzyl benzoate) greater than 100 mg/mL and a solubility (sesame oil) greater than 100 mg/mL.

With `O=C(NCc1ccccc1)OCN1C(=O)CCc2ccc(OCCCCN3CCN(c4cccc5sccc45)CC3)cc21` [Example 80, N-benzylcarbamic acid 7-[4-(4-benzo[b]thiophen-4-ylpiperazin-1-yl)butoxy]-2-oxo-3,4-dihydro-2H-quinolin-1-ylmethyl ester], under “benzyl benzoate”, the solubility is greater than 100 mg/mL.

As to `CCCC(C)C(=O)OCN1C(=O)CCc2ccc(OCCCCN3CCN(c4cccc5sccc45)CC3)cc21` (centres unmarked) [Example 81, 2-methylpentanoic acid 7-[4-(4-benzo[b]thiophen-4-ylpiperazin-1-yl)butoxy]-2-oxo-3,4-dihydro-2H-quinolin-1-ylmethyl ester], the solubility (benzyl benzoate) was greater than 100 mg/mL.

In turn, `CCCCCCCCCCCCCC(=O)OCN1C(=O)CCc2ccc(OCCCCN3CCN(c4cccc5sccc45)CC3)cc21` [Example 82, tetradecanoic acid 7-[4-(4-benzo[b]thiophen-4-ylpiperazin-1-yl)butoxy]-2-oxo-3,4-dihydro-2H-quinolin-1-ylmethyl ester] gave a solubility (benzyl benzoate) greater than 100 mg/mL.

On to `O=C(NC1CCCCC1)OCN1C(=O)CCc2ccc(OCCCCN3CCN(c4cccc5sccc45)CC3)cc21` [Example 83, N-cyclohexylcarbamic acid 7-[4-(4-benzo[b]thiophen-4-ylpiperazin-1-yl)butoxy]-2-oxo-3,4-dihydro-2H-quinolin-1-ylmethyl ester], for which the solubility (benzyl benzoate) was greater than 100 mg/mL.

As to `CCCCC(C)(C)C(=O)OCN1C(=O)CCc2ccc(OCCCCN3CCN(c4cccc5sccc45)CC3)cc21` [Example 84, 2,2-dimethylhexanoic acid 7-[4-(4-benzo[b]thiophen-4-ylpiperazin-1-yl)butoxy]-2-oxo-3,4-dihydro-2H-quinolin-1-ylmethyl ester], for the setting “benzyl benzoate”, the solubility is greater than 100 mg/mL.

For the compound `CC(=O)OCN1C(=O)CCc2ccc(OCCCCN3CCN(c4cccc5sccc45)CC3)cc21` [Example 85, acetic acid 7-[4-(4-benzo[b]thiophen-4-ylpiperazin-1-yl)butoxy]-2-oxo-3,4-dihydro-2H-quinolin-1-ylmethyl ester], the solubility (benzyl benzoate) was greater than 100 mg/mL.

Under “benzyl benzoate”, `O=C(OCN1C(=O)CCc2ccc(OCCCCN3CCN(c4cccc5sccc45)CC3)cc21)N1CCOCC1` [Example 86, morpholine-4-carboxylic acid 7-[4-(4-benzo[b]thiophen-4-ylpiperazin-1-yl)butoxy]-2-oxo-3,4-dihydro-2H-quinolin-1-ylmethyl ester] yielded a solubility greater than 100 mg/mL.

Where the note is “benzyl benzoate”, `CCC(C)C(=O)OCn1c(=O)ccc2ccc(OCCCCN3CCN(c4cccc5sccc45)CC3)cc21` (centres unmarked) [Example 87, 2-methylbutyric acid 7-[4-(4-benzo[b]thiophen-4-ylpiperazin-1-yl)butoxy]-2-oxo-2H-quinolin-1-ylmethyl ester] returned a solubility greater than 100 mg/mL.

Regarding `CCCCC(C)C(=O)OCn1c(=O)ccc2ccc(OCCCCN3CCN(c4cccc5sccc45)CC3)cc21` (centres unmarked) [Example 88, 2-methylhexanoic acid 7-[4-(4-benzo[b]thiophen-4-ylpiperazin-1-yl)butoxy]-2-oxo-2H-quinolin-1-ylmethyl ester], the solubility (benzyl benzoate) is greater than 100 mg/mL.

Turning to `COC(=O)CNC(=O)OCN1C(=O)CCc2ccc(OCCCCN3CCN(c4cccc5sccc45)CC3)cc21` [Example 89, {7-[4-(4-benzo[b]thiophen-4-ylpiperazin-1-yl)butoxy]-2-oxo-3,4-dihydro-2H-quinolin-1-ylmethoxycarbonylamino}acetic acid methyl ester], the solubility (benzyl benzoate) is greater than 100 mg/mL.

`COC(=O)CN(C)C(=O)OCN1C(=O)CCc2ccc(OCCCCN3CCN(c4cccc5sccc45)CC3)cc21` [Example 90, ({7-[4-(4-benzo[b]thiophen-4-ylpiperazin-1-yl)butoxy]-2-oxo-3,4-dihydro-2H-quinolin-1-ylmethoxycarbonyl}methylamino)acetic acid methyl ester] gave a solubility (benzyl benzoate) greater than 100 mg/mL.

Take `CCCCCCCCCCCCCCC(=O)OCN1C(=O)CCc2ccc(OCCCCN3CCN(c4cccc5sccc45)CC3)cc21` [Example 91, pentadecanoic acid 7-[4-(4-benzo[b]thiophen-4-ylpiperazin-1-yl)butoxy]-2-oxo-3,4-dihydro-2H-quinolin-1-ylmethyl ester]: for the setting “benzyl benzoate”, the solubility was greater than 100 mg/mL.

In the case of `CCCCCC(C)C(=O)OCN1C(=O)CCc2ccc(OCCCCN3CCN(c4cccc5sccc45)CC3)cc21` (centres unmarked) [Example 92, 2-methylheptanoic acid 7-[4-(4-benzo[b]thiophen-4-ylpiperazin-1-yl)butoxy]-2-oxo-3,4-dihydro-2H-quinolin-1-ylmethyl ester], under “benzyl benzoate”, the solubility was greater than 100 mg/mL.

Source of the values: patent US9539252B2, “Piperazine-substituted benzothiophene derivatives as antipsychotic agents” (OTSUKA PHARMACEUTICAL CO., LTD., priority 2011, dated 2017).
